Our source for the T/C values is PubChem BioAssay AID272 (DTP/NCI, 2004).

Records with an inconclusive call do not appear.

The test system of this experiment is Lewis lung carcinoma i.m., BDF1 mice, T/C %. The experiment can be described thus: NCI In Vivo Anticancer Drug Screen. Data for tumor model Lewis Lung Carcinoma (intramuscular) in B6D2F1 (BDF1) mice. In a few lines: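 Antitumour activity is assessed in transplanted-tumour mice. Endpoint is survival or tumour size, normalised to vehicle-dosed controls (T/C).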

Where [1] appears, read: endpoint: mean tumor weight, dose: 12.5 mg/kg/injection, schedule: Q01DX011 (ip), vehicle: saline, higher = larger tumour.
Where [2] appears, read: endpoint: median survival time, dose: 12.5 mg/kg/injection, schedule: Q01DX011 (ip), vehicle: saline, higher = longer survival.

`COc1cc([C@@H]2c3cc4c(cc3C[C@H]3COC(=O)[C@@H]32)OCO4)cc(OC)c1OC`: the T/C (endpoint: mean tumor weight (est.), dose: 5.0 mg/kg/injection, schedule: Q01DX011 (ip), vehicle: saline, higher = larger tumour) was 68 % of control; the T/C (endpoint: mean tumor weight (est.), dose: 10.0 mg/kg/injection, schedule: Q01DX011 (ip), vehicle: saline, higher = larger tumour) is 54 % of control; the T/C (endpoint: mean tumor weight, dose: 6.25 mg/kg/injection, schedule: Q01DX011 (ip), vehicle: saline, higher = larger tumour) is 100 % of control; the T/C under setting [1] is 70 % of control; the T/C (endpoint: median survival time, dose: 6.25 mg/kg/injection, schedule: Q01DX011 (ip), vehicle: saline, higher = longer survival) is 100 % of control; the T/C under setting [2] is 87 % of control.
Turning to `OC(C1CO1)C(O)C1CO1` (configuration not stated), the T/C reads like this: (endpoint: median survival time, dose: 1.0 mg/kg/injection, schedule: Q01DX011 (ip), vehicle: saline, higher = longer survival) 110 % of control; (endpoint: median survival time, dose: 2.0 mg/kg/injection, schedule: Q01DX011 (ip), vehicle: saline, higher = longer survival) 108 % of control; (endpoint: median survival time, dose: 3.0 mg/kg/injection, schedule: Q01DX011 (ip), vehicle: saline, higher = longer survival) 114 % of control.
`COC(=O)CC(OC)c1nc(C(=O)OC)c(C)c(=O)[nH]1` (configuration not stated): the T/C is, setting by setting: (endpoint: median survival time, dose: 8.0 mg/kg/injection, schedule: Q01DX009 (ip), vehicle: Klucel (hydroxypropylcellulose) (HPC), higher = longer survival) 114 % of control; (endpoint: median survival time, dose: 16.0 mg/kg/injection, schedule: Q01DX009 (ip), vehicle: Klucel (hydroxypropylcellulose) (HPC), higher = longer survival) 123 % of control; (endpoint: median survival time, dose: 32.0 mg/kg/injection, schedule: Q01DX009 (ip), vehicle: Klucel (hydroxypropylcellulose) (HPC), higher = longer survival) 88 % of control.
As for `C/C(=C\COc1ccc2ccc(=O)oc2c1)C1=CC(=O)C(C)(C)O1`, the T/C runs as follows: (endpoint: mean tumor weight, dose: 100.0 mg/kg/injection, schedule: Q01DX011 (ip), vehicle: saline, higher = larger tumour) 55 % of control; (endpoint: mean tumor weight, dose: 200.0 mg/kg/injection, schedule: Q01DX011 (ip), vehicle: saline, higher = larger tumour) 47 % of control; (endpoint: mean tumor weight, dose: 400.0 mg/kg/injection, schedule: Q01DX011 (ip), vehicle: saline, higher = larger tumour) 62 % of control; (endpoint: median survival time, dose: 100.0 mg/kg/injection, schedule: Q01DX011 (ip), vehicle: saline, higher = longer survival) 108 % of control; (endpoint: median survival time, dose: 200.0 mg/kg/injection, schedule: Q01DX011 (ip), vehicle: saline, higher = longer survival) 100 % of control; (endpoint: median survival time, dose: 400.0 mg/kg/injection, schedule: Q01DX011 (ip), vehicle: saline, higher = longer survival) 102 % of control.
`CO[C@H]1/C=C/O[C@@]2(C)Oc3c(C)c(O)c4c(O)c(c(/C=N/N5C(C)CN(Cc6ccccc6)CC5C)c(O)c4c3C2=O)NC(=O)/C(C)=C\C=C\[C@H](C)[C@H](O)[C@@H](C)[C@@H](O)[C@@H](C)[C@H](OC(C)=O)[C@@H]1C` (some centres not stated): the T/C was 117 % of control (endpoint: median survival time, dose: 25.0 mg/kg/injection, schedule: Q02DX009 (ip), vehicle: other, higher = longer survival); 114 % of control (endpoint: median survival time, dose: 50.0 mg/kg/injection, schedule: Q02DX009 (ip), vehicle: Klucel (hydroxypropylcellulose) (HPC), higher = longer survival); 107 % of control (endpoint: median survival time, dose: 50.0 mg/kg/injection, schedule: Q02DX009 (ip), vehicle: other, higher = longer survival); 98 % of control (endpoint: median survival time, dose: 200.0 mg/kg/injection, schedule: Q02DX009 (ip), vehicle: Klucel (hydroxypropylcellulose) (HPC), higher = longer survival); 87 % of control (endpoint: median survival time, dose: 200.0 mg/kg/injection, schedule: Q02DX009 (ip), vehicle: other, higher = longer survival); 98 % of control (endpoint: median survival time, dose: 400.0 mg/kg/injection, schedule: Q02DX009 (ip), vehicle: Klucel (hydroxypropylcellulose) (HPC), higher = longer survival).
With `CCN1/C(=C/C(C)=C/c2sc3ccccc3[n+]2CC)Sc2ccccc21`, the T/C runs as follows: (endpoint: mean tumor weight (est.), dose: 50.0 micrograms/kg/injection, schedule: Q01DX011 (ip), vehicle: saline with Tween-80, higher = larger tumour) 88 % of control; (endpoint: mean tumor weight (est.), dose: 100.0 micrograms/kg/injection, schedule: Q01DX011 (ip), vehicle: saline with Tween-80, higher = larger tumour) 74 % of control; (endpoint: median survival time, dose: 50.0 micrograms/kg/injection, schedule: Q01DX011 (ip), vehicle: saline with Tween-80, higher = longer survival) 91 % of control; (endpoint: median survival time, dose: 100.0 micrograms/kg/injection, schedule: Q01DX011 (ip), vehicle: saline with Tween-80, higher = longer survival) 87 % of control.
As for `Cc1cc(/C=C/c2cc[n+](C)c3ccccc23)c(O)c2ncccc12`, the T/C by setting is: (endpoint: mean tumor weight, dose: 6.0 mg/kg/injection, schedule: Q01DX011 (ip), vehicle: saline, higher = larger tumour) 76 % of control; (endpoint: median survival time, dose: 6.0 mg/kg/injection, schedule: Q01DX011 (ip), vehicle: saline, higher = longer survival) 102 % of control.
Turning to `CCN(CC)CCN1C(=O)c2cccc3cccc(c23)C1=O`, the T/C was 76 % of control (endpoint: mean tumor weight (est.), dose: 27.5 mg/kg/injection, schedule: Q01DX011 (ip), vehicle: saline, higher = larger tumour); 55 % of control (endpoint: mean tumor weight (est.), dose: 55.0 mg/kg/injection, schedule: Q01DX011 (ip), vehicle: saline, higher = larger tumour); 64 % of control (endpoint: mean tumor weight (est.), dose: 110.0 mg/kg/injection, schedule: Q01DX011 (ip), vehicle: saline, higher = larger tumour).
As to `CNC(=S)N/N=C/C(C)=N/NC(=S)NC`, the T/C was 100 % of control (endpoint: median survival time, dose: 0.2 micrograms/kg/injection, schedule: Q01DX011 (ip), vehicle: saline with Tween-80, higher = longer survival); 102 % of control (endpoint: median survival time, dose: 0.5 micrograms/kg/injection, schedule: Q01DX011 (ip), vehicle: saline with Tween-80, higher = longer survival); 102 % of control (endpoint: median survival time, dose: 1.0 micrograms/kg/injection, schedule: Q01DX011 (ip), vehicle: saline with Tween-80, higher = longer survival).
`CC(=O)NNC(=O)c1ccccn1`: the T/C reads like this: (endpoint: median survival time, dose: 8.0 mg/kg/injection, schedule: Q01DX Z (ip), vehicle: other, higher = longer survival) 86 % of control; (endpoint: median survival time, dose: 16.0 mg/kg/injection, schedule: Q01DX Z (ip), vehicle: other, higher = longer survival) 86 % of control; (endpoint: median survival time, dose: 32.0 mg/kg/injection, schedule: Q01DX Z (ip), vehicle: other, higher = longer survival) 86 % of control; (endpoint: median survival time, dose: 64.0 mg/kg/injection, schedule: Q01DX Z (ip), vehicle: other, higher = longer survival) 91 % of control.
With `N[C@H](C(=O)O)[C@H]1ON=C(Cl)[C@@H]1O`, the T/C was 92 % of control (endpoint: median survival time, dose: 8.0 mg/kg/injection, schedule: Q01DX013 (ip), vehicle: saline, higher = longer survival) and 107 % of control (endpoint: median survival time, dose: 16.0 mg/kg/injection, schedule: Q01DX013 (ip), vehicle: saline, higher = longer survival).
In the case of `CS(=O)(=O)OCCC(=O)N1CCN(C(=O)CCOS(C)(=O)=O)CC1`, the T/C reads like this: under setting [1], 79 % of control; (endpoint: mean tumor weight, dose: 25.0 mg/kg/injection, schedule: Q01DX011 (ip), vehicle: saline, higher = larger tumour) 60 % of control; (endpoint: mean tumor weight, dose: 50.0 mg/kg/injection, schedule: Q01DX011 (ip), vehicle: saline, higher = larger tumour) 61 % of control; under setting [2], 104 % of control; (endpoint: median survival time, dose: 25.0 mg/kg/injection, schedule: Q01DX011 (ip), vehicle: saline, higher = longer survival) 97 % of control.
